In the assay the target is human F508del-CFTR (Homo sapiens, UniProt P13569, DEL508-508). The assay is described as follows: F508del-CFTR cell surface expression (corrector activity), DiscoveRx ß-galactosidase complementation chemiluminescence assay in recombinant U2OS cell line.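 For all read-outs here: U2OS cells co-expressing ProLink-tagged F508del-CFTR and a membrane-anchored enzyme acceptor, where more surface CFTR restores β-galactosidase activity measured by chemiluminescence.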 The settings on record: U2OS cells, 16h compound incubation; for pEC50: EC50, F508del-CFTR cell surface expression, geomean of several measurements; for Emax: U2OS, in relation to the Emax of the corrector lumacaftor (=100%), arithmetic mean.

pEC50: −log10 of the molar value.

Sequence of human F508del-CFTR (P13569 with tags, fused parts or gaps DEL508-508): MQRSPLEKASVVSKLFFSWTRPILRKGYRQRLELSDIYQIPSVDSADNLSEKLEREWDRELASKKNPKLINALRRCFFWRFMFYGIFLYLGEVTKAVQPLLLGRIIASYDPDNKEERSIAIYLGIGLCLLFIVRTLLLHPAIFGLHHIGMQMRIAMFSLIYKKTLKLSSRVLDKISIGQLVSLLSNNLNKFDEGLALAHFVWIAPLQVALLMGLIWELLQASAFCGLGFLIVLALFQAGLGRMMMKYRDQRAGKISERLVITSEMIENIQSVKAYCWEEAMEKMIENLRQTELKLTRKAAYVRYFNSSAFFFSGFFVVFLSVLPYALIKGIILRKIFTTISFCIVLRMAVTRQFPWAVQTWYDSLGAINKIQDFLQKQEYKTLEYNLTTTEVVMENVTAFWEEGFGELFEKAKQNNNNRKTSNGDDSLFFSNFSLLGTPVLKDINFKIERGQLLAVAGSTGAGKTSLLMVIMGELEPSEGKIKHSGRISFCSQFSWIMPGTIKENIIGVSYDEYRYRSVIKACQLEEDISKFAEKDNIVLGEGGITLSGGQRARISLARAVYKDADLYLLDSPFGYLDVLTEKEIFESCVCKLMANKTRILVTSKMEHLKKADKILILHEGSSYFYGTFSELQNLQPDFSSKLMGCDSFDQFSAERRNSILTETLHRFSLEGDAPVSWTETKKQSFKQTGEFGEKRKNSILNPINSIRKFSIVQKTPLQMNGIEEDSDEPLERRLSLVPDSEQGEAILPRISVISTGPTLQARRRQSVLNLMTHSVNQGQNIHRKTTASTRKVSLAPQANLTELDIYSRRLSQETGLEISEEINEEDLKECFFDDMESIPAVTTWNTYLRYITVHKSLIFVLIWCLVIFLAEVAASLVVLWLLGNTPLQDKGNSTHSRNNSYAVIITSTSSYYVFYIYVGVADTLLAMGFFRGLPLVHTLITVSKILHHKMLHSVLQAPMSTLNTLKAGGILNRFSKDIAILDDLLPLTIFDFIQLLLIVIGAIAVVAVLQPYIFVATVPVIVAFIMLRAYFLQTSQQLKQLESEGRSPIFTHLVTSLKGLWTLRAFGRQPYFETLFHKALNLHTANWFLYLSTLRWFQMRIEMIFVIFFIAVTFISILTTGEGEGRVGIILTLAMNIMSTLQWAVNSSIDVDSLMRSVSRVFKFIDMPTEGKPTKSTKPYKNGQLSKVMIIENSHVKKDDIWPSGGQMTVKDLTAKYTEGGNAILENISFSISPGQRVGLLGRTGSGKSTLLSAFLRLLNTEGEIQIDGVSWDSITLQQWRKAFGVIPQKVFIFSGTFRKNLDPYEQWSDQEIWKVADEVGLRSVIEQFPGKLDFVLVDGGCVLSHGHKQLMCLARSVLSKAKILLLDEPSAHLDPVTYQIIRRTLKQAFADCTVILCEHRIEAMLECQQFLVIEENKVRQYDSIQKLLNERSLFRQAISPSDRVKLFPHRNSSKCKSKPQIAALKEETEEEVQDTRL

Regarding `COc1noc(CCNC(=O)[C@@H]2CC(=O)N(C)[C@@H](CC(C)C)C(=O)N(C)[C@H](Cc3nc(C(F)(F)F)no3)C(=O)N[C@H](Cc3ccccc3)COc3ccnc(OC)c3C(=O)N2)n1` [Example 949, (3R,6R,9S,13S)-3-benzyl-9-isobutyl-16-methoxy-N-(2-(3-methoxy-1,2,4-oxadiazol-5-yl)ethyl)-7,10-dimethyl-5,8,11,15-tetraoxo-6-((3-(trifluoromethyl)-1,2,4-oxadiazol-5-yl)methyl)-2,3,4,5,6,7,8,9,10,11,12,13,14,15-tetradecahydropyrido[3,4-p][1]oxa[4,7,10,14]tetraazacycloheptadecine-13-carboxamide], the pEC50 (as a rule, −log10 of the EC50, conventionally taken in molar units) is 6.95 and the Emax (in general, the greatest response seen or fitted, relative to the assay's reference) was 518%.
For `Cc1cc2c3c(ccc2cn1)OC[C@@H](Cc1ccccc1)NC(=O)[C@@H](CC(F)(F)F)N(C)C(=O)[C@H](CC(C)C)N(C)C(=O)C[C@@H](C(=O)NCCc1noc(C2CC2)n1)NC3=O` [Example 950, (3S,7S,10R,13R)-13-benzyl-N-(2-(5-cyclopropyl-1,2,4-oxadiazol-3-yl)ethyl)-7-isobutyl-6,9,20-trimethyl-1,5,8,11-tetraoxo-10-(2,2,2-trifluoroethyl)-1,2,3,4,5,6,7,8,9,10,11,12,13,14-tetradecahydro-[1]oxa[4,7,10,14]tetraazacycloheptadecino[16,17-f]isoquinoline-3-carboxamide], in that order: 6.70 and 464%.
For `Cc1cc2c3c(ccc2cn1)OC[C@@H](Cc1ccccc1)NC(=O)[C@@H](CC(F)(F)F)N(C)C(=O)[C@H](CC(C)C)N(C)C(=O)C[C@@H](C(=O)NCCc1nc(C2CC2)no1)NC3=O` [Example 951, (3S,7S,10R,13R)-13-benzyl-N-(2-(3-cyclopropyl-1,2,4-oxadiazol-5-yl)ethyl)-7-isobutyl-6,9,20-trimethyl-1,5,8,11-tetraoxo-10-(2,2,2-trifluoroethyl)-1,2,3,4,5,6,7,8,9,10,11,12,13,14-tetradecahydro-[1]oxa[4,7,10,14]tetraazacycloheptadecino[16,17-f]isoquinoline-3-carboxamide], in that order: 6.78 and 405%.
Taken in the same sequence, the figures for `Cc1cc2c3c(ccc2cn1)OC[C@@H](Cc1ccccc1)NC(=O)C1(CC(F)(F)C1)N(C)C(=O)[C@H](CC(C)C)N(C)C(=O)C[C@@H](C(=O)NCCc1nc(C2CC2)no1)NC3=O` [Example 952, (3′S,7′S,13′R)-13′-benzyl-N-(2-(3-cyclopropyl-1,2,4-oxadiazol-5-yl)ethyl)-3,3-difluoro-7′-isobutyl-6′,9′,20′-trimethyl-1′,5′,8′,11′-tetraoxo-2′,3′,4′,5′,6′,7′,8′,9′,11′,12′,13′,14′-dodecahydro-1′H-spiro[cyclobutane-1,10′-[1]oxa[4,7,10,14]tetraazacycloheptadecino[16,17-f]isoquinoline]-3′-carboxamide] were 6.47 and 438%.
In the case of `COc1cc(CCNC(=O)[C@@H]2CC(=O)N(C)[C@@H](CC(C)C)C(=O)N(C)C3(CC(F)(F)C3)C(=O)N[C@H](Cc3ccccc3)COc3ccc4cnc(C)cc4c3C(=O)N2)on1` [Example 953, (3′S,7′S,13′R)-13′-benzyl-3,3-difluoro-7′-isobutyl-N-(2-(3-methoxyisoxazol-5-yl)ethyl)-6′,9′,20′-trimethyl-1′,5′,8′,11′-tetraoxo-2′,3′,4′,5′,6′,7′,8′,9′,11′,12′,13′,14′-dodecahydro-1′H-spiro[cyclobutane-1,10′-[1]oxa[4,7,10,14]tetraazacycloheptadecino[16,17-f]isoquinoline]-3′-carboxamide], the pEC50 was 6.57 and the Emax was found to be 394%.
For `COc1noc(CCNC(=O)[C@@H]2CC(=O)N(C)[C@@H](CC(C)C)C(=O)N(C)C3(CC(F)(F)C3)C(=O)N[C@H](Cc3ccccc3)COc3ccc4cnc(C)cc4c3C(=O)N2)n1` [Example 954, (3′S,7′S,13′R)-13′-benzyl-3,3-difluoro-7′-isobutyl-N-(2-(3-methoxy-1,2,4-oxadiazol-5-yl)ethyl)-6′,9′,20′-trimethyl-1′,5′,8′,11′-tetraoxo-2′,3′,4′,5′,6′,7′,8′,9′,11′,12′,13′,14′-dodecahydro-1′H-spiro[cyclobutane-1,10′-[1]oxa[4,7,10,14]tetraazacycloheptadecino[16,17-f]isoquinoline]-3′-carboxamide], in that order: 6.42 and 383%.
For `Cc1cc2c3c(ccc2cn1)OC[C@@H](Cc1ccccc1)NC(=O)C1(CC(F)(F)C1)N(C)C(=O)[C@H](CC(C)C)N(C)C(=O)C[C@@H](C(=O)NCCn1nnc(C2CC2)n1)NC3=O` [Example 955, (3′S,7′S,13′R)-13′-benzyl-N-(2-(5-cyclopropyl-2H-tetrazol-2-yl)ethyl)-3,3-difluoro-7′-isobutyl-6′,9′,20′-trimethyl-1′,5′,8′,11′-tetraoxo-2′,3′,4′,5′,6′,7′,8′,9′,11′,12′,13′,14′-dodecahydro-1′H-spiro[cyclobutane-1,10′-[1]oxa[4,7,10,14]tetraazacycloheptadecino[16,17-f]isoquinoline]-3′-carboxamide], in that order: 6.42 and 394%.
Consider `Cc1cc2c3c(ccc2cn1)OC[C@@H](Cc1ccccc1)NC(=O)[C@@H](CC(F)(F)F)N(C)C(=O)[C@H](CC(C)C)N(C)C(=O)C[C@@H](C(=O)NCCc1cc(C2CC2)no1)NC3=O` [Example 956, (3S,7S,10R,13R)-13-benzyl-N-(2-(3-cyclopropylisoxazol-5-yl)ethyl)-7-isobutyl-6,9,20-trimethyl-1,5,8,11-tetraoxo-10-(2,2,2-trifluoroethyl)-1,2,3,4,5,6,7,8,9,10,11,12,13,14-tetradecahydro-[1]oxa[4,7,10,14]tetraazacycloheptadecino[16,17-f]isoquinoline-3-carboxamide], for which the pEC50 is 6.29 and the Emax is 412%.
Taken in the same sequence, the figures for `COc1cc(CCNC(=O)[C@@H]2CC(=O)N(C)[C@@H](CC(C)C)C(=O)N(C)[C@H](CC(F)(F)F)C(=O)N[C@H](Cc3ccccc3)COc3ccc4cnc(C)cc4c3C(=O)N2)on1` [Example 957, (3S,7S,10R,13R)-13-benzyl-7-isobutyl-N-(2-(3-methoxyisoxazol-5-yl)ethyl)-6,9,20-trimethyl-1,5,8,11-tetraoxo-10-(2,2,2-trifluoroethyl)-1,2,3,4,5,6,7,8,9,10,11,12,13,14-tetradecahydro-[1]oxa[4,7,10,14]tetraazacycloheptadecino[16,17-f]isoquinoline-3-carboxamide] were 6.72 and 451%.
Taken in the same sequence, the figures for `Cc1cc2c3c(ccc2cn1)OC[C@@H](Cc1ccccc1)NC(=O)[C@@H](CC(F)(F)F)N(C)C(=O)[C@H](CC(C)C)N(C)C(=O)C[C@@H](C(=O)NCCc1cc(C2CC2)on1)NC3=O` [Example 958, (3S,7S,10R,13R)-13-benzyl-N-(2-(5-cyclopropylisoxazol-3-yl)ethyl)-7-isobutyl-6,9,20-trimethyl-1,5,8,11-tetraoxo-10-(2,2,2-trifluoroethyl)-1,2,3,4,5,6,7,8,9,10,11,12,13,14-tetradecahydro-[1]oxa[4,7,10,14]tetraazacycloheptadecino[16,17-f]isoquinoline-3-carboxamide] were 6.47 and 439%.
Taken in the same sequence, the figures for `Cc1cc2c3c(ccc2cn1)OC[C@@H](Cc1ccccc1)NC(=O)[C@@H](CC(F)(F)F)N(C)C(=O)[C@H](CC(C)C)N(C)C(=O)C[C@@H](C(=O)NCCn1nnc(C2CC2)n1)NC3=O` [Example 959, (3S,7S,10R,13R)-13-benzyl-N-(2-(5-cyclopropyl-2H-tetrazol-2-yl)ethyl)-7-isobutyl-6,9,20-trimethyl-1,5,8,11-tetraoxo-10-(2,2,2-trifluoroethyl)-1,2,3,4,5,6,7,8,9,10,11,12,13,14-tetradecahydro-[1]oxa[4,7,10,14]tetraazacycloheptadecino[16,17-f]isoquinoline-3-carboxamide] were 6.65 and 413%.
Regarding `COc1noc(CCNC(=O)[C@@H]2CC(=O)N(C)[C@@H](CC(C)C)C(=O)N(C)[C@H](CC(F)(F)F)C(=O)N[C@H](Cc3ccccc3)COc3ccc4cnc(C)cc4c3C(=O)N2)c1F` [Example 960, (3S,7S,10R,13R)-13-benzyl-N-(2-(4-fluoro-3-methoxyisoxazol-5-yl)ethyl)-7-isobutyl-6,9,20-trimethyl-1,5,8,11-tetraoxo-10-(2,2,2-trifluoroethyl)-1,2,3,4,5,6,7,8,9,10,11,12,13,14-tetradecahydro-[1]oxa[4,7,10,14]tetraazacycloheptadecino[16,17-f]isoquinoline-3-carboxamide], the pEC50 was 7.07 and the Emax came to 507%.
For `COCCn1cc(CCNC(=O)[C@@H]2CC(=O)N(C)[C@@H](CC(C)C)C(=O)N(C)[C@H](Cc3nc(C(F)(F)F)no3)C(=O)N[C@H](Cc3ccccc3)COc3cc(C)nc(OC)c3C(=O)N2)cn1` [Example 961, (3R,6R,9S,13S)-3-benzyl-9-isobutyl-16-methoxy-N-(2-(1-(2-methoxyethyl)-1H-pyrazol-4-yl)ethyl)-7,10,18-trimethyl-5,8,11,15-tetraoxo-6-((3-(trifluoromethyl)-1,2,4-oxadiazol-5-yl)methyl)-2,3,4,5,6,7,8,9,10,11,12,13,14,15-tetradecahydropyrido[3,4-p][1]oxa[4,7,10,14]tetraazacycloheptadecine-13-carboxamide], in that order: 6.45 and 453%.
Take `COCCn1cc(CCNC(=O)[C@@H]2CC(=O)N(C)[C@@H](CC(C)C)C(=O)N(C)[C@H](Cc3nc(C(F)(F)F)no3)C(=O)N[C@H](Cc3ccccc3)COc3ccc4ncc(F)cc4c3C(=O)N2)cn1` [Example 962, (3S,7S,10R,13R)-13-benzyl-20-fluoro-7-isobutyl-N-(2-(1-(2-methoxyethyl)-1H-pyrazol-4-yl)ethyl)-6,9-dimethyl-1,5,8,11-tetraoxo-10-((3-(trifluoromethyl)-1,2,4-oxadiazol-5-yl)methyl)-1,2,3,4,5,6,7,8,9,10,11,12,13,14-tetradecahydro-[1]oxa[4,7,10,14]tetraazacycloheptadecino[16,17-f]quinoline-3-carboxamide]: the pEC50 was 6.99 and the Emax is 453%.

The record behind these values is patent US20240208992A1, “MACROCYCLES AS CFTR MODULATORS” (Idorsia Pharmaceuticals Ltd, priority 2021, published 2024).
